Patent publication US11466044B2 (WAYNE STATE UNIVERSITY, priority 2017, dated 2022)
In brackets after ≈: the same amount, converted by molar mass. Structures can show the parent of a compound that is named as a salt. Where two headings read alike, the source gives them in different places.

How the values were obtained:
[1] = test system: Klebsiella pneumonia AG215; assay: MIC by broth microdilution, Klebsiella pneumonia; assay type: cell-based; conditions: strain AG215 Klebsiella pneumonia; for MIC: Klebsiella pneumoniae, read-out: MIC AG215 K. pneumon
[2] = test system: P aeruginosa; assay: MIC by broth microdilution, P aeruginosa isolates; assay type: cell-based, Pseudomonas aeruginosa; conditions: for MIC50: Pseudomonas aeruginosa; for MIC / MIC AG220 P. aerugin: strain AG220 Pseudomonas aeruginosa ATCC27853; for MIC: read-out: MIC AG220 P. aerugin
[3] = test system: E coli carrying specific resistance determinants; assay: MIC by broth microdilution, E coli carrying specific resistance determinants; assay type: cell-based; conditions: for MIC50 / MIC: Escherichia coli; for MIC50: Table 2B (Example 2); for MIC AG037 E. coli APH(3′)-III: engineered strain AG037 APH(3′)-III; for MIC pH421 E. coli APH(3′)-I: engineered strain pH421 APH(3′)-I; for MIC pH422 E. coli APH(3′)-II: engineered strain pH422 APH(3′)-II; for MIC pH423 E. coli APH(3′)-VI: engineered strain pH423 APH(3′)-VI
[4] = test system: MRSA; assay: MIC by broth microdilution, MRSA isolates; assay type: cell-based; conditions: for MIC50: Staphylococcus aureus, MRSA
[5] = test system: M. smegmatis SZ380; assay: MIC by broth microdilution, M. smegmatis; conditions: for MIC: Mycolicibacterium smegmatis, SZ380, read-out: MIC SZ380 M. smegmatis, strain SZ380 Mycobacterium smegmatis; for MIC SZ380 M. smegmatis: strain SZ380 Mycobacterium smegmatis
[6] = test system: E coli wild type; assay: MIC by broth microdilution, wild type E coli; assay type: cell-based; conditions: for MIC / MIC50: Escherichia coli; for MIC AG212 E. coli: strain AG212 E. coli (ATCC25922)
[7] = test system: Acinetobacter baumannii pittii AG225; assay: MIC by broth microdilution, Acinetobacter baumannii; assay type: cell-based; conditions: strain AG225 Acinetobacter baumannii pittii
[8] = test system: Enterobacter cloacae AG290; assay: MIC by broth microdilution, Enterobacter cloacae; assay type: cell-based; conditions: strain AG290 Enterobacter cloacae; for MIC: read-out: MIC AG290 E. cloacae
[9] = ATCC25922, strain AG212 E. coli (ATCC25922), read-out: MIC AG212 E. coli
[10] = clinical isolate AG160 WT, Table 2 (Example 4)
[11] = engineered strain pH430 WT, Table 2 (Example 4)

With `CC(C)(O)C1O[C@H](O[C@@H]2C(N)C[C@@H](N)C(O)[C@H]2O[C@@H]2O[C@H](CO)[C@H](O[C@H]3O[C@@H](CN)[C@@H](O)C(O)C3N)C2O)C(N)[C@@H](O)[C@@H]1O` (stereo partly shown) [Compound 159] the MIC [1] was 1 to 2 µg/mL (≈ 1.55 to 3.11 µM), the MIC50 ([2]; strain AG31, Table 1 (Example 2), read-out: MIC50 P aeruginosa AG31) was > 128 µg/mL and the MIC50 ([2]; strain AG32, Table 1 (Example 2), read-out: MIC50 P aeruginosa AG32) was > 128 µg/mL. The MIC50 ([2]; strain AG33, Table 1 (Example 2), read-out: MIC50 P aeruginosa AG33) was > 128 µg/mL, the MIC50 ([2]; strain AG86, Table 1 (Example 2), read-out: MIC50 P aeruginosa AG86) was > 128 µg/mL and the MIC [2] was > 64 µg/mL. For the same compound, the MIC50 ([3]; read-out: MIC50 E coli AG036 ANT(4′,4″), AG036 ANT(4′,4″)) was 16 to 32 µg/mL (≈ 24.9 to 49.7 µM), the MIC50 ([3]; read-out: MIC50 E coli AG037 APH(3′)-III, AG037 APH(3′)-III) was > 64 µg/mL and the MIC50 ([3]; read-out: MIC50 E coli AG103 armA, AG103 armA) was 4 to 8 µg/mL (≈ 6.21 to 12.4 µM). The MIC50 ([3]; read-out: MIC50 E coli pH421 APH(3′)-I, pH421 APH(3′)-I) was > 64 µg/mL, the MIC50 ([3]; read-out: MIC50 E coli pH422 APH(3′)-II, pH422 APH(3′)-II) was > 64 µg/mL and the MIC50 ([3]; read-out: MIC50 E coli pH423 APH(3)-VI, pH423 APH(3)-VI) was 8 µg/mL (≈ 12.4 µM). For the same compound, the MIC50 ([3]; read-out: MIC50 E coli pH432 ANT(4′), pH432 ANT(4′)) was 2 µg/mL (≈ 3.11 µM), the MIC50 ([4]; strain AG38, Table 1 (Example 2), read-out: MIC50 MRSA AG38) was 8 to 16 µg/mL (≈ 12.4 to 24.9 µM) and the MIC50 ([4]; strain AG39, Table 1 (Example 2), read-out: MIC50 MRSA AG39) was > 128 µg/mL. The MIC50 ([4]; strain AG42, Table 1 (Example 2), read-out: MIC50 MRSA AG42) was > 128 µg/mL, the MIC50 ([4]; strain AG44, Table 1 (Example 2), read-out: MIC50 MRSA AG44) was 4 to 8 µg/mL (≈ 6.21 to 12.4 µM) and the MIC [5] was 2 µg/mL (≈ 3.11 µM). The MIC [6, 9] was 4 µg/mL (≈ 6.21 µM), the MIC50 ([6]; BM13 (AG06) wt, Table 2A (Example 2), read-out: MIC50 E coli BM13 (AG06) wt) was 4 µg/mL (≈ 6.21 µM) and the MIC50 ([6]; pH430 WT, Table 2B (Example 2), read-out: MIC50 E coli pH430 WT) was 1 to 2 µg/mL (≈ 1.55 to 3.11 µM). It also gave an MIC50 ([6]; strain AG01, Table 1 (Example 2), read-out: MIC50 E coli AG01) of 8 µg/mL (≈ 12.4 µM), an MIC50 ([6]; strain AG03, Table 1 (Example 2), read-out: MIC50 E coli AG03) of 8 µg/mL (≈ 12.4 µM) and an MIC50 ([6]; strain AG55, Table 1 (Example 2), read-out: MIC50 E coli AG55) of 8 µg/mL (≈ 12.4 µM). For the same compound, the MIC [7] was 4 µg/mL (≈ 6.21 µM) and the MIC [8] was 2 µg/mL (≈ 3.11 µM).

`CC(=O)NC[C@H]1O[C@@H](O[C@@H]2C(O)[C@H](N)CC(N)[C@H]2O[C@H]2OC(CO)[C@@H](O)[C@H](O)C2N)C(O)[C@H]1O[C@H]1O[C@@H](CN)[C@@H](O)C(O)C1N` (stereo partly shown) [Compound 165, 5″-Acetamido-5″-deoxy-paromomycin-acetate salt] was tested, and the MIC [1] was 8 µg/mL, the MIC50 ([2]; strain AG31, Table 1 (Example 1), read-out: MIC50 P aeruginosa AG31) was > 128 µg/mL and the MIC50 ([2]; strain AG32, Table 1 (Example 1), read-out: MIC50 P aeruginosa AG32) was > 128 µg/mL. For the same compound, the MIC50 ([2]; strain AG33, Table 1 (Example 1), read-out: MIC50 P aeruginosa AG33) was > 128 µg/mL, the MIC50 ([2]; strain AG86, Table 1 (Example 1), read-out: MIC50 P aeruginosa AG86) was > 128 µg/mL and the MIC [2] was > 64 µg/mL. The MIC ([3]; read-out: MIC AG037 E. coli APH(3′)-III) was > 64 µg/mL, the MIC ([3]; read-out: MIC pH421 E. coli APH(3′)-I) was > 64 µg/mL and the MIC ([3]; read-out: MIC pH422 E. coli APH(3′)-II) was > 64 µg/mL. For the same compound, the MIC ([3]; read-out: MIC pH423 E. coli APH(3′)-VI) was > 64 µg/mL, the MIC50 ([4]; strain AG38, Table 1 (Example 1), read-out: MIC50 MRSA AG38) was 16 to 32 µg/mL and the MIC50 ([4]; strain AG39, Table 1 (Example 1), read-out: MIC50 MRSA AG39) was > 128 µg/mL. For the same compound, the MIC50 ([4]; strain AG42, Table 1 (Example 1), read-out: MIC50 MRSA AG42) was > 128 µg/mL, the MIC50 ([4]; strain AG44, Table 1 (Example 1), read-out: MIC50 MRSA AG44) was 16 µg/mL and the MIC [5] was 32 µg/mL. It also gave an MIC ([6]; AG006 wt, Table 2 (Example 1), read-out: MIC E coli AG006 wt) of 4 to 8 µg/mL, an MIC [6, 9] of 16 µg/mL and an MIC ([6]; clinical isolate AG160 WT, Table 2 (Example 4), read-out: MIC AG160 E. coli WT) of 8 µg/mL. It also gave an MIC ([6]; engineered strain pH430 WT, Table 2 (Example 4), read-out: MIC pH430 E. coli WT) of 8 to 16 µg/mL, an MIC50 ([6]; strain AG01, Table 1 (Example 1), read-out: MIC50 E coli AG01) of 64 µg/mL and an MIC50 ([6]; strain AG03, Table 1 (Example 1), read-out: MIC50 E coli AG03) of 32 to 64 µg/mL. The MIC50 ([6]; strain AG55, Table 1 (Example 1), read-out: MIC50 E coli AG55) was 32 µg/mL, the MIC [7] was 8 to 16 µg/mL and the MIC [8] was 8 µg/mL.

With “5″-Deoxy-5″-ureido-paromomycin acetate salt [Compound 141]” the “MIC AG215 K. pneumon” value [1] was 2 µg/mL, the “MIC50 P aeruginosa AG31” value ([2]; strain AG31, Table 1 (Example 1)) was >128 µg/mL and the “MIC50 P aeruginosa AG32” value ([2]; strain AG32, Table 1 (Example 1)) was >128 µg/mL. For the same compound, the “MIC50 P aeruginosa AG33” value ([2]; strain AG33, Table 1 (Example 1)) was >128 µg/mL, the “MIC50 P aeruginosa AG86” value ([2]; strain AG86, Table 1 (Example 1)) was >128 µg/mL and the “MIC AG220 P. aerugin” value [2] was >64 µg/mL. For the same compound, the “MIC AG037 E. coli APH(3′)-III” value ([3]; Table 2 (Example 4)) was >128 µg/mL, the “MIC pH421 E. coli APH(3′)-I” value ([3]; Table 2 (Example 4)) was >64 μg/ml and the “MIC pH422 E. coli APH(3′)-II” value ([3]; Table 2 (Example 4)) was >64 μg/ml. The “MIC pH423 E. coli APH(3′)-VI” value ([3]; Table 2 (Example 4)) was >64 μg/ml, the “MIC50 MRSA AG38” value ([4]; strain AG38, Table 1 (Example 1)) was 4 to 8 µg/mL and the “MIC50 MRSA AG39” value ([4]; strain AG39, Table 1 (Example 1)) was >128 µg/mL. For the same compound, the “MIC50 MRSA AG42” value ([4]; strain AG42, Table 1 (Example 1)) was >128 µg/mL, the “MIC50 MRSA AG44” value ([4]; strain AG44, Table 1 (Example 1)) was 4 µg/mL and the “MIC SZ380 M. smegmatis” value [5] was 2 µg/mL. For the same compound, the “MIC E coli AG006 wt” value ([6]; AG006 wt, Table 2 (Example 1)) was 1 µg/mL, the “MIC AG160 E. coli WT” value [6, 10] was 4 µg/mL and the “MIC pH430 E. coli WT” value [6, 11] was 2-4 μg/ml. The “MIC50 E coli AG01” value ([6]; strain AG01, Table 1 (Example 1)) was 16 µg/mL, the “MIC50 E coli AG03” value ([6]; strain AG03, Table 1 (Example 1)) was 16 µg/mL and the “MIC50 E coli AG55” value ([6]; strain AG55, Table 1 (Example 1)) was 16 µg/mL. For the same compound, the “MIC AG212 E. coli” value [6] was 4 µg/mL, the “MIC AG225 A. baumannii” value [7] was 4 µg/mL and the “MIC AG290 E. cloacae” value [8] was 2 to 4 µg/mL.

In the case of `CCO[C@@H]1C(CN)O[C@H](O[C@@H]2C(N)C[C@@H](N)C(O)[C@H]2O[C@@H]2O[C@H](CO)[C@H](OCCN)C2O)[C@@H](N)C1O` (stereo partly shown) [Compound 073], the MIC [1] is reported as 4 µg/mL (≈ 7.61 µM), the MIC [2] is reported as > 128 µg/mL and the MIC [5] is reported as 8 µg/mL (≈ 15.2 µM). It also gave an MIC [6, 9] of 8 µg/mL (≈ 15.2 µM), an MIC [7] of 8 µg/mL (≈ 15.2 µM) and an MIC [8] of 4 µg/mL (≈ 7.61 µM).

`CCC[C@@H]1C(CO)O[C@H](O[C@@H]2C(N)C[C@@H](N)C(O)[C@H]2O[C@@H]2O[C@H](CO)[C@H](O[C@H]3C[C@@H](CN)[C@@H](O)C(O)C3N)C2O)[C@@H](N)C1O` (stereo partly shown) [Compound 116] was tested, and the “MIC AG215 K. pneumon” value [1] was 1 µg/mL (≈ 1.56 µM), the “MIC AG220 P. aerugin” value [2] was 4 µg/mL (≈ 6.25 µM) and the “MIC AG163 E. coli APH(3′)-I” value ([3]; clinical isolate AG163 APH(3′)-I, Table 2 (Example 4)) was >64 µg/mL. The “MIC AG166 E. coli APH(3′)-II” value ([3]; clinical isolate AG166 APH(3′)-II, Table 2 (Example 4)) was 2 to 4 µg/mL, the “MIC AG037 E. coli APH(3′)-III” value ([3]; Table 2 (Example 4)) was >64 µg/mL and the “MIC pH421 E. coli APH(3′)-I” value ([3]; Table 2 (Example 4)) was >32 μg/ml. The “MIC pH422 E. coli APH(3′)-II” value ([3]; Table 2 (Example 4)) was 0.5 μg/ml, the “MIC pH423 E. coli APH(3′)-VI” value ([3]; Table 2 (Example 4)) was 1 μg/ml and the “MIC SZ380 M. smegmatis” value [5] was 1 µg/mL (≈ 1.56 µM). The “MIC AG160 E. coli WT” value [6, 10] was 1 µg/mL (≈ 1.56 µM), the “MIC pH430 E. coli WT” value [6, 11] was 0.5 μg/ml and the “MIC AG212 E. coli” value [6] was 2 µg/mL (≈ 3.13 µM). The “MIC AG225 A. baumannii” value [7] was 2 µg/mL (≈ 3.13 µM) and the “MIC AG290 E. cloacae” value [8] was 1 µg/mL (≈ 1.56 µM).
